How the values were obtained:
human MOR = human MOR (Homo sapiens (Human), UniProt P35372)
mice = conditions: mouse, in vivo

SMILES	G/βarr2 bias factor (human MOR)	constipation following acute administration (mice)
COc1ccsc1CNCC[C@@]1(c2ccccn2)CCOC2(CCCC2)C1 [TRV-130]	3.0	–
CN1CC[C@]23c4c5ccc(O)c4O[C@H]2[C@@H](O)C=C[C@H]3[C@H]1C5 [morphine]	–	induced constipation
